US20040259104A1, “Test” (priority 2002, published 2004)
Where “and” joins values, the source holds several entries; their conditions need not be identical. Equal values may be shown once.

Legend:
Type in all cases: in vivo, human
[1] = tested on: feedback sensitivity of the HPA-axis; assay: Dexamethasone suppression test (DST): serum cortisol after DEX; conditions: mean
Description: A total of 202 human subjects participated in the study. Their age varied between 53 and 82 years ([…] with mean ages of 67.7±0.6 and 65.9±0.6 years, respectively). They were living in a suburb of Rotterdam, The Netherlands. These subjects were participants in the Rotterdam Study, a population-based cohort study (7983 subjects) of the determinants of chronic disabling diseases in the elderly and were selected at random. Subjects with acute, psychiatric or endocrine diseases, including diabetes mellitus treated with medication were not invited. Compared to all participants of the Rotterdam study, there were no differences in age and gender distribution and cardiovascular risk factors. The subjects gave their written consent to participate in the study, which received the approval of the Medical Ethics Committee of the Erasmus University Medical School. In order to get more information about the individual variability of the feedback sensitivity of the HPA-axis all 202 subjects were invited for a second DST with a lower dose DEX (0.25 mg) two and a half years later. 149 subjects agreed to participate in this second test (72 men and 77 women).
(§1) The two dexamethasone suppression tests (DST) were performed as described previously (Huizenga et al, J.Clin.Endocrinol Metab.1998; 83(1): 47-54). In brief, venous blood was obtained in the morning between 8 and 9 am after an overnight fast for serum cortisol and insulin measurements. Participants were instructed to ingest a tablet of 1 mg (and 0.25 mg, respectively) DEX at 11.00 pm. The next morning fasting blood was drawn by venapuncture at the same time as the previous morning. To check for compliance and possible abnormalities in the metabolism of DEX, the DEX concentration was also measured in a radioimmunoassay using antiserum obtained from IgG Corporation (Nashville, Tenn.). Intra- and interassay variations were below 8.5% and 14.2% respectively.
(§2) Serum cortisol concentrations were determined using RIA-kits obtained from Diagnostics Products Corporation (Los Angeles, Calif.). Intra- and interassay variations were below 8.0% and 9.5% respectively. Circulating insulin and cortisol binding globulin concentrations were determined using commercially available ratioimmunoassays (Medgenix Diagnostics, Brussels, Belgium). Intra- and interassay variations were 8.0% and 13.7% respectively. Estradiol, androstenedione and DHEAS concentrations were determined using RIA-kits obtained from Diagnostics Products Corporation. Intra- and interassay variations; estradiol: 7.0% and 8.1% androstenedione: 8.3% and 9.2%, DHEAS: 5.3% and 7.0% SHBG was assayed with an commercially available immunoradiometric assay (Diagnostics Products Corporation; intra- and interassay variations were 3.6% and 6.9% respectively). Testosterone was measured with a non-commercial radioimmunoassay (intra- and interassay variations 3.6% and 6.9%). Commercially available immunoradiometric assays were used for the measurement of IGF-BP1 (Diagnostic System Laboratories Inc.; intra- and interassay variations 4.0% and 6.0%).

[2] = DEX concentration by radioimmunoassay after DST; conditions: mean
Method: as §1

[3] = Fasting serum insulin after DEX administration (DST); conditions: for Post DEX insulin / Δ insulin: mean
Method: as §1, §2

[4] = Fasting glucose after DEX administration (DST); conditions: 0.25 mg DEX
Method: as §1
Glucose, total cholesterol, HDL-chlesterol and triglycerides were measured using standard laboratory methods. Low density lipoprotein (LDL)-cholesterol was calculated using the following formula: LDL-cholesterol=total cholesterol−((triglycerides/5)+HDL-cholesterol).

[5] = 0.25 mg DEX, ER22/23EK-carriers (n = 13), second examination
[6] = 0.25 mg DEX, non-carriers (n = 136), second examination

For C[C@@H]1C[C@H]2[C@@H]3CCC4=CC(=O)C=C[C@]4(C)[C@@]3(F)[C@@H](O)C[C@]2(C)[C@@]1(O)C(=O)CO [DEX, dexamethasone], the PostDEX cortisol [1, 5] was 267.5 nmol/L, the Δ cortisol [1, 5] was 259.7 nmol/L and the PostDEX cortisol [1, 6] was 259.5 nmol/L. The Δ cortisol [1, 6] was 285.8 nmol/L, the PostDEX cortisol ([1]; 1 mg DEX oral at 11.00 pm, next morning fasting, ER22/23EK-carriers (n = 18), first examination) was 57.9 nmol/L and the PostDEX cortisol ([1]; 1 mg DEX oral at 11.00 pm, next morning fasting, non-carriers (n = 184), first examination) was 33.3 nmol/L. The Δ cortisol ([1]; cortisol suppression in reaction to 1 mg DEX, ER22/23EK-carriers (n = 18)) was 504.9 nmol/L, the Δ cortisol ([1]; cortisol suppression in reaction to 1 mg DEX, non-carriers (n = 184)) was 481.4 nmol/L and the DEX concentration ([2]; morning after 0.25 mg DEX, ER22/23EK-carriers (n = 13)) was 2.88 nmol/L. The DEX concentration ([2]; morning after 0.25 mg DEX, non-carriers (n = 136)) was 2.85 nmol/L, the DEX concentration ([2]; morning after 1 mg DEX, ER22/23EK-carriers (n = 18)) was 6.63 nmol/L and the DEX concentration ([2]; morning after 1 mg DEX, non-carriers (n = 184)) was 7.32 nmol/L. For the same molecule, the “Post DEX insulin” value ([3]; 0.25 mg DEX, ER22/23EK-carriers (n = 10), second examination) was 10.0 mU/l, the “Post DEX insulin” value ([3]; 0.25 mg DEX, non-carriers (n = 105), second examination) was 14.2 mU/l and the “insulin level after DEX administration” value ([3]; 0.25 mg DEX, total group of 115 subjects, 14.7 before, p=0.02) was 13.9±0.50 mU/L. The “Post DEX insulin” value ([3]; 1 mg DEX, ER22/23EK-carriers (n = 15), first examination) was 14.4 mU/l, the “insulin concentration after DEX administration” value ([3]; 1 mg DEX, all 182 subjects together, 11.5±5.15 before, p<0.001) was 17.2±8.41 mU/L and the “Post DEX insulin” value ([3]; 1 mg DEX, non-carriers (n = 167), first examination) was 17.4 mU/l. The Δ insulin ([3]; change in response to 0.25 mg DEX, ER22/23EK-carriers (n = 10)) was 0.01 mU/l, the Δ insulin ([3]; change in response to 0.25 mg DEX, non-carriers (n = 105)) was −0.92 mU/l and the Δ insulin ([3]; change in response to 1 mg DEX, ER22/23EK-carriers (n = 15)) was 5.5±1.3 mU/l and 5.5 mU/l. The Δ insulin ([3]; change in response to 1 mg DEX, non-carriers (n = 167)) was 5.7±0.6 mU/l and 5.7 mU/l, the “glucose concentration after the 0.25 mg DST” value ([4]; ER22/23EK-carriers) was 5.3 ± 0.17 mmol/L and the “glucose concentration after DST” value ([4]; all subjects, 5.6±0.06 before, p=0.004) was 5.5 ± 0.05 mmol/L. For the same molecule, the “glucose concentration after the 0.25 mg DST” value ([4]; non-carriers) was 5.5 ± 0.05 mmol/L.
